The values that follow come from ChEMBL document CHEMBL1139919, “Beta-substituted cyclohexanecarboxamide cathepsin K inhibitors: modification of the 1,2-disubstituted aromatic core” (Bioorg Med Chem Lett, 2007).

The structures appear in SMILES notation.

Series [1] concerns the target T1, Cathepsin K (Oryctolagus cuniculus, UniProt P43236).
T1 sequence (P43236 whole entry): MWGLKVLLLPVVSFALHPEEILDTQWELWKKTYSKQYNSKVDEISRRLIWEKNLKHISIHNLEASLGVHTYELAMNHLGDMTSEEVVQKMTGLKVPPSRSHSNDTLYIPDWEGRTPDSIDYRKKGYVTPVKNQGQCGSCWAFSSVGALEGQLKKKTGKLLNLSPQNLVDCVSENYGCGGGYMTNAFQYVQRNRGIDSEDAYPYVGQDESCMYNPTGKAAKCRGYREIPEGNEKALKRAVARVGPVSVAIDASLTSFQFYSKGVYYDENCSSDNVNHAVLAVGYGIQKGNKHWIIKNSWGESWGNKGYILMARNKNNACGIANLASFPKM
As to the kind of experiment: Inhibition of rabbit cathepsin K.

In series [2] the target is Cathepsin K (Homo sapiens, UniProt P43235). As to the kind of experiment: Inhibition of humaized rabbit cathepsin K.
For series [3], the species on record is Oryctolagus cuniculus. In words: Inhibition of bone resorption in New Zealand white rabbit by crosslaps ELISA assay. Format: functional, organism-based. For orientation: ELISA stands for enzyme-linked immunosorbent assay.
Series [4] can be described thus: Oral bioavailability in rat at 10 mg/kg. The note with it: in vivo. The class given is ADME, organism-based.
A short description of series [5]: AUC in rat at 10 mg/kg, po or 5 mg/kg, iv. The note with it: plasma. Format: ADME, organism-based.
The species entered for series [6] is Homo sapiens. As to the kind of experiment: Selectivity for human cathepsin K over human cathepsin B.
For series [7], the species on record is Homo sapiens. In words: Selectivity for human cathepsin K over human cathepsin S.
The species entered for series [8] is Homo sapiens. In words: Selectivity for human cathepsin K over human cathepsin L.
The species entered for series [9] is Oryctolagus cuniculus. In words: Selectivity for IC50 of new Zealand white […] bone resorption over IC50 rabbit cathepsin K. Format: functional.
Series [10] can be described thus: Half life in rat at 10 mg/kg, po or 5 mg/kg, iv. The class given is ADME, organism-based. The settings on record: in vivo.
The nature of series [11]: Half life in rat at 5 mg/kg, po or 1 mg/kg, iv. The class given is ADME, organism-based. The note with it: in vivo.
Series [12] can be described thus: Oral bioavailability in rat at 5 mg/kg. The class given is ADME, organism-based. The settings on record: in vivo.
The nature of series [13]: AUC in rat at 5 mg/kg, po or 1 mg/kg, iv. The settings on record: plasma. Format: ADME, organism-based.

What is called IC50 is the concentration that gives 50% inhibition. Low readings indicate greater potency in that assay, high ones weaker potency in that assay. By bioavailability is commonly meant dose-corrected exposure relative to a reference, in per cent. A lower bioavailability goes with poor availability. One may read the AUC as the area under the concentration-time curve, a measure of exposure. A low value points to low exposure. On to `CSc1ccc(-c2ccccc2C2CCC(F)(F)CC2C(=O)NCC#N)cc1` (racemic; form 1) [listing 1 of 2 here], for which the figures for the IC50 on Cathepsin K [1], on Cathepsin K [2] and in the series listed under Oryctolagus cuniculus [3] were 0.3 nM, 0.3 nM and 16 nM, respectively. The compound further displayed a bioavailability in [4] of 39%. This compound also yielded an AUC in [5] of 18.5 µM·h.

For the compound `CSc1ccc(-c2ccccc2C2CCC(F)(F)CC2C(=O)NCC#N)cc1` (racemic; form 1) [listing 2 of 2 here], the values for the Selectivity ratio in the series listed under Homo sapiens [6], in the series listed under Homo sapiens [7] and in the series listed under Homo sapiens [8] were more than 36000, 940 and 780, respectively. The Ratio IC50 in the series filed under Oryctolagus cuniculus [9] was 53.

Consider `CSc1ccc(-c2nc(C)sc2C2CCC(F)(F)CC2C(=O)NCC#N)cc1` (racemic), for which the IC50 at Cathepsin K [1] was 0.1 nM; on Cathepsin K [2] it was 0.2 nM; in the series filed under Oryctolagus cuniculus [3] (Oryctolagus cuniculus) it was 17 nM. Moreover, the values for the Selectivity ratio in the series filed under Homo sapiens [6], in the series filed under Homo sapiens [7] and in the series listed under Homo sapiens [8] were 15000, 380 and 270, respectively. For the same compound, the Ratio IC50 in the series listed under Oryctolagus cuniculus [9] amounted to 170.

Take `CSc1ccc(-c2c(C3CCC(F)(F)CC3C(=O)NCC#N)nnn2Cc2ccccc2)cc1` (racemic): the IC50 is 9 nM at Cathepsin K [1], 2 nM at Cathepsin K [2] and 33 nM in the series filed under Oryctolagus cuniculus [3] (Oryctolagus cuniculus). Moreover, the values for the Selectivity ratio in the series filed under Homo sapiens [6], in the series filed under Homo sapiens [7] and in the series filed under Homo sapiens [8] were 1400, 180 and 350, respectively. Further, the Ratio IC50 in the series filed under Oryctolagus cuniculus [9] was determined as 4.

The term half-life denotes the time needed for the level to fall by half in the phase considered. A high value points to slow decline. As to `CSc1ccc(-c2cn(C)nc2C2CCC(F)(F)CC2C(=O)NCC#N)cc1` (racemic), the half-life in [10] is 4.6 h. The IC50 on Cathepsin K [1] is 0.4 nM; at Cathepsin K [2], 0.4 nM; in the series listed under Oryctolagus cuniculus [3] (Oryctolagus cuniculus), 41 nM. In addition, the figures for the Selectivity ratio in the series filed under Homo sapiens [6], in the series listed under Homo sapiens [7] and in the series filed under Homo sapiens [8] were 9500, 490 and 730, respectively. In addition, the bioavailability in series [4] is 100%. Also, the Ratio IC50 in the series listed under Oryctolagus cuniculus [9] was determined as 103. In [5], the AUC amounted to 28.9 µM·h.

As to `N#CCNC(=O)C1CC(F)(F)CCC1c1cnccc1-c1ccc(SCF)cc1` (racemic), the values for the IC50 against Cathepsin K [1], at Cathepsin K [2] and in the series listed under Oryctolagus cuniculus [3] (Oryctolagus cuniculus) were 2 nM, 2 nM and 58 nM, respectively. For the same compound, the Selectivity ratio was more than 5000 in the series filed under Homo sapiens [6], 450 in the series filed under Homo sapiens [7] and 260 in the series filed under Homo sapiens [8]. Besides, the Ratio IC50 in the series filed under Oryctolagus cuniculus [9] worked out at 29.

With `CSc1ccc(-c2c[nH]c(=O)cc2C2CCC(F)(F)CC2C(=O)NCC#N)cc1` (racemic), the IC50 is 5 nM against Cathepsin K [1], 4 nM against Cathepsin K [2] and 20 nM in the series filed under Oryctolagus cuniculus [3] (Oryctolagus cuniculus). The Selectivity ratio in the series filed under Homo sapiens [6] is 1200; in the series listed under Homo sapiens [7], 540; in the series listed under Homo sapiens [8] it was 410. The Ratio IC50 in the series listed under Oryctolagus cuniculus [9] was found to be 4.

`CSc1ccc(-c2c[n+]([O-])ccc2C2CCC(F)(F)CC2C(=O)NCC#N)cc1` (racemic): the IC50 is 5 nM against Cathepsin K [1], 5 nM at Cathepsin K [2] and 75 nM in the series listed under Oryctolagus cuniculus [3] (Oryctolagus cuniculus). For the same compound, the Selectivity ratio is more than 2000 in the series filed under Homo sapiens [6], 480 in the series listed under Homo sapiens [7] and 460 in the series filed under Homo sapiens [8]. The Ratio IC50 in the series filed under Oryctolagus cuniculus [9] worked out at 15.

Take `CSc1ccc(-c2ccccc2C2CCC(F)(F)CC2C(=O)NCC#N)cc1` (racemic; form 2) [listing 1 of 2 here]: the values for the Selectivity ratio in the series listed under Homo sapiens [6], in the series filed under Homo sapiens [7] and in the series listed under Homo sapiens [8] were more than 120000, 1100 and 880, respectively. Further, the Ratio IC50 in the series listed under Oryctolagus cuniculus [9] stood at 76.

Regarding `CSc1ccc(-c2cnccc2C2CCC(F)(F)CC2C(=O)NCC#N)cc1` (racemic), the IC50 against Cathepsin K [1] is 1 nM; at Cathepsin K [2], 1 nM; in the series listed under Oryctolagus cuniculus [3] (Oryctolagus cuniculus) it was 18 nM. This compound also gave a half-life in [11] of 1 h. In series [12], this compound had a bioavailability of 65%. In series [13], this compound had an AUC of 8.6 µM·h. The Selectivity ratio in the series filed under Homo sapiens [6] is more than 10000; in the series listed under Homo sapiens [7], 720; in the series listed under Homo sapiens [8], 520. For the same compound, the Ratio IC50 in the series listed under Oryctolagus cuniculus [9] worked out at 18.

In the case of `CSc1ccc(-c2ncccc2C2CCC(F)(F)CC2C(=O)NCC#N)cc1` (racemic), the IC50 was 1 nM on Cathepsin K [1], 1 nM at Cathepsin K [2] and 10 nM in the series listed under Oryctolagus cuniculus [3] (Oryctolagus cuniculus). In addition, the Selectivity ratio in the series filed under Homo sapiens [6] was more than 10000; in the series listed under Homo sapiens [7], 850; in the series listed under Homo sapiens [8] it was 540. The Ratio IC50 in the series listed under Oryctolagus cuniculus [9] is 10.

As for `CSc1ccc(-c2ccccc2C2CCC(F)(F)CC2C(=O)NCC#N)cc1` (racemic; form 2) [listing 2 of 2 here], the IC50 on Cathepsin K [2] is 0.5 nM; in the series listed under Oryctolagus cuniculus [3], 38 nM.

With `CSc1ccc(-c2c(C3CCC(F)(F)CC3C(=O)NCC#N)cc[nH]c2=O)cc1` (racemic), the IC50 at Cathepsin K [1] came out at 6 nM; at Cathepsin K [2], 8 nM; in the series listed under Oryctolagus cuniculus [3] (Oryctolagus cuniculus), 84 nM. Besides, the Selectivity ratio in the series listed under Homo sapiens [6] was more than 1250; in the series listed under Homo sapiens [7], 310; in the series filed under Homo sapiens [8] it was 430. In the series listed under Oryctolagus cuniculus [9], the Ratio IC50 amounted to 14.
